In patent publication US8658677B2, “Pyridyl-2-methylamino compounds, compositions and uses thereof” (Aria Neurosciences Inc., priority 2011, dated 2014):
“Also recorded” adds a separate entry of the source.

Experiments:
[1] = tested on: APPSW/PS1dE9 mice; experiment: Memory testing: object recognition and 8-armed radial arm maze; assay type: in vivo; conditions: 50 mg/kg/day ip, last three weeks of treatment
Experimental: (§1) Female APPSW/PS1dE9 mice received ARN2966 (n=10) or Vehicle (n=15) from the age of six to ten months. ARN2966 (50 mg/kg/day) was given once a day by intraperitoneal injection. […] After conclusion of the experiments, samples of organs from ARN2966 and Vehicle treated animals were subjected to histopathological evaluation conducted by a veterinary pathologist. […] Signs of mild chronic peritonitis related to repeated daily intraperitoneal compound injection, however, were reported in both groups.
P<0.05, unpaired, two-tailed t-test. […] One session is given per day. […] Starting from day five, vehicle treated APPSW/PS1dE9mice were consistently making more errors than ARN2966 treated APPSW/PS1dE9 and non-Tg littermates. One-way ANOVA p<0.001.
During the last three weeks of treatment, animals were behaviorally tested using object recognition paradigm and the 8-armed radial arm maze, both of which measure memory capability. […] However, vehicle treated APPSW/PS1dE9 mice were incapable of discriminating between familiar and novel objects, as is characteristic of their phenotype.

[2] = tested on: APPSW/PS1dE9 mice; experiment: In vivo toxicity during four-month treatment; conditions: 50 mg/kg/day ip, age six to ten months
Experimental: as §1

[3] = tested on: APP; experiment: Acute treatment experiment: brain soluble Aβ40, APP, C99 and C83; assay type: in vivo, mice; conditions: five days ip, ARN2966 50 mg/kg/day, Compound E 3 mg/kg/day
Experimental: Furthermore, we conducted an acute treatment experiment where six months old female APPSW/PS1dE9 mice (n=3/group) were treated for five days with ARN2966 (50 mg/kg/day), Compound E (3 mg/kg/day) or Vehicle injected intraperitoneally. Mice were killed three hours after the last injections. The level of soluble Aβ40 was measured in the brain aliquots following diethylamine (DEA) extraction. It was lower in ARN2966 and Compound E treated groups by 39% (p<0.05) and 60% (p<0.05) comparing to vehicle treated mice, respectively (p<0.05; FIG. 6E).
FIGS. 6.(A, B) ARN2966 treatment reduces load of Aβ plaques (n=10 ARN2966, n=15 Vehicle). (B) Representative photomicrograph of Th-S stained brain sections from vehicle and ARN2966 treated 10 month old, female APPSW/PS1dE9reveal a difference in the load of Aβ plaques. […] (D) Reduced Aβ40 and Aβ42 levels in FA extracted brain homogenate, which represent the total brain content of Aβ peptides in ARN2966 treated animals (ELISA). (E) Reduced soluble Aβ40 level in DEA extracted brain homogenate, of ARN2966 and Compound E treated mice (ELISA). […] Aβ concentrations in (C) (D) and (E) are given per gram of wet brain. All values are given as mean±SEM. Statistical analysis was done using two-tailed unpaired t-test, following confirmation of normal distribution of data using Shapiro-Wilk test.

[4] = tested on: APP; experiment: 35S-Methionine pulse labeling of APP in 751APPSW CHO cells; assay type: cell-based, human
Experimental: D. APP was immunoprecipitated with 22C11 mAb against its N-terminus. Representative radiographs (B) and densitometric results averaged from three independent experiments are shown (A). […] Two sets of experiments were conducted using either actin or GAPDH as housekeeping genes.

[5] = target: T1, Aβ40 (Homo sapiens, UniProt P05067); experiment: Oligomerization assay; assay type: biochemical
T1 construct: host or cells: chemical solid-phase peptide synthesis (no expression host)
Experimental: […] monomerized synthetic Aβ40 was incubated in 0.1M Tris pH 7.0, T=37° C. for 8 days in the presence of 0-100 μM concentration of compounds. […] An arrow indicates Aβ monomers clustered in ill developed protofibril. (C) Oligomerization assay. ARN4261 and ARN4224 reduced the amount of Aβ oligomers by 78% and 74%, respectively p<0.001. A compound 69b (GKLVFNmgA) was used as a positive control. 69b is homologous to Aβ sequence 17-21 and contains N-methyl glycine (Nmg), which renders it capable of anti-fibrillization and anti-oligomerization effect. (D) Principle of oligomerization assay. 100 μM Aβ40 was aggregated alone or with the addition of 10 μM of tested compounds [1:10 compound: Ab ratio] for 24 h in conditions promoting oligomers assembly, i.e., DMEM/F-12 medium+0.2% SDS, T=4° C. Prior to SDS-PAGE in non-reducing conditions samples were treated with glutaraldehyde. A strong smear of Aβ oligomers is seen between 37 and 70 KDa markers (arrows) in lane 2, and a dense band below the 25 KDa marker reflects Aβ monomers non-dissociated by 10% polyacrylamide gel. No oligomers above 37 KDa marker are seen in lane 1 containing only Aβ monomers run as a control. […] (E) TEM of Aβ oligomers. […] Yellow arrowhead indicates smaller oligomers.

[6] = Analysis of chemical structure stability; assay type: physicochemical
Excerpt: This is because of the instability of —C═N— bond. Therefore we have synthesized a reduced version of ARN4261dubbed ARN2966 (2-[(pyridine-2-ylmethyl)-amino]-phenol, MW 200.2 Da, Log P 1.96).

T1 sequence (P05067 672-711): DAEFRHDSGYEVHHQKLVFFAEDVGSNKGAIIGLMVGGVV

SMILES	object recognition test [1]	radial arm maze, errors per session [1]	body weight / weight gain [2]	histopathological evaluation of organs [2]	physical appearance, unprovoked behavior, response to external stimuli [2]	APP, C99 and C83 signal in brain homogenate (western immunoblotting) [3]	lowering of soluble Aβ40 (DEA extraction) in brain vs vehicle ([3]; killed three hours after last injection)	reduction of translation of APP ([4]; 25 μM, 2 h 35S-Methionine pulse)	incorporation of 35S-Methionine by APP during translation ([4]; 751APPSW CHO cells)	translation of β-actin ([4]; 751APPSW CHO cells)	TEM of Aβ oligomers [5]	reduction of the amount of Aβ oligomers ([5]; 100 μM Aβ40, 10 μM compound, 24 h, DMEM/F-12 + 0.2% SDS, 4° C.)	amount of oligomers on SDS-PAGE ([5]; 100 μM Aβ40, 10 μM compound, 24 h, lanes 3-5)	chemical structure stability [6]	stability in acidic pH ([6]; acidic pH)
Oc1ccccc1NCc1ccccn1 [ARN2966, 2-[(pyridine-2-ylmethyl)-amino]-phenol]	spent significantly more time exploring the novel object; also recorded: able to distinguish a novel object from the familiar object	made fewer errors than vehicle group	proper rate of age related weight gain	No signs of ARN2966 toxicity	no noticeable changes in physical appearance, unprovoked behavior or response to external stimuli	evident reduction of APP, C99, and C83 signal	39%	61.5%	significantly reduced incorporation of 35S-Methionine by APP	remained unaltered					
Oc1ccccc1N=Cc1ccccn1 [ARN4261, 2-(Pyridin-2-ylmethyleneamino)-phenol]											increased number of Aβ monomers and dimers	78%	reduced amount of oligomers	prone to self-decomposing	easily degradable in acidic pH
